Laboratory results: patent US20230271950A1, “ANTIBACTERIAL PICOLINAMIDE COMPOUNDS” (University of Notre Dame Du Lac, priority 2020, published 2023)
In brackets after ≈: the same amount, converted by molar mass. Like-named read-outs stand apart in the source and are kept apart here.

Tests used:
C. difficile = test: MIC by broth microdilution against C. difficile strains; format: cell-based, Clostridioides difficile; conditions: for MIC: Table 9, read-out: MIC
Veillonella sp. HM-49 = test: MIC against gut bacterium Veillonella sp.; format: cell-based
MRSA (NRS70, NRS119) = test: MIC against MRSA strains; format: cell-based, Staphylococcus aureus; conditions: Staphylococcus aureus, read-out: MIC
Bacteroides fragilis = test: MIC against gut bacterium Bacteroides fragilis; format: cell-based; conditions: Bacteroides fragilis, Bacteroides fragilis strain HM-709, read-out: MIC
Eubacterium sp. = test: MIC against gut bacterium Eubacterium sp.; format: cell-based; conditions: Eubacterium, Eubacterium sp. strain HM-178, read-out: MIC
Bifidobacterium longum = test: MIC against gut bacterium Bifidobacterium longum; format: cell-based; conditions: Bifidobacterium longum, Bifidobacterium longum strain HM-846, read-out: MIC
Corynebacterium spp. = test: MIC against gut bacterium Corynebacterium spp.; format: cell-based; conditions: Corynebacterium, Corynebacterium spp. strain HM-784
S. aureus ATCC29213 = test: MIC against MSSA; format: cell-based, Staphylococcus aureus; conditions: Staphylococcus aureus; S. aureus ATCC29213; Table 1; read-out: MIC
Lactobacillus reuteri = test: MIC against gut bacterium Lactobacillus reuteri; format: cell-based
E. faecium NCTC7171 = test: MIC against E. faecium; format: cell-based, Enterococcus faecium; conditions: Enterococcus faecium; E. faecium NCTC7171; Table 1; read-out: MIC
Lactobacillus gasseri = test: MIC against gut bacterium Lactobacillus gasseri; format: cell-based
Fusobacterium nucleatum = test: MIC against gut bacterium Fusobacterium nucleatum; format: cell-based; conditions: Fusobacterium nucleatum, Fusobacterium nucleatum strain HM-992, read-out: MIC

CCc1c(Cl)c(O)c(Cl)c(O)c1C(=O)O[C@H]1[C@H](O)[C@H](OC)[C@H](OC/C2=C\C=C\C[C@H](O)/C(C)=C/[C@H](CC)[C@@H](O[C@@H]3OC(C)(C)[C@@H](OC(=O)C(C)C)[C@H](O)[C@@H]3O)/C(C)=C/C(C)=C/C[C@@H]([C@@H](C)O)OC2=O)O[C@@H]1C [FDX, fidaxomicin, reference compound]
MIC (C. difficile; Clostridioides difficile, C. difficile NR-13553): ≤ 0.03 µg/mL
MIC (C. difficile; Clostridioides difficile, C. difficile NR-32882): 0.06 µg/mL (≈ 0.0567 µM)
MIC (C. difficile; Clostridioides difficile, C. difficile NR-32884): 0.03 µg/mL (≈ 0.0284 µM)
MIC (C. difficile; Clostridioides difficile, C. difficile NR-32885): 0.25 µg/mL (≈ 0.236 µM)
MIC (C. difficile; Clostridioides difficile, C. difficile NR-32886): 0.03 µg/mL (≈ 0.0284 µM)
MIC (C. difficile; Clostridioides difficile, C. difficile NR-32888): 0.03 µg/mL (≈ 0.0284 µM)
MIC (C. difficile; Clostridioides difficile, C. difficile NR-32889): 0.25 µg/mL (≈ 0.236 µM)
MIC (C. difficile; Clostridioides difficile, C. difficile NR-32890): 0.06 µg/mL (≈ 0.0567 µM)
MIC (C. difficile; Clostridioides difficile, C. difficile NR-32891): 0.03 µg/mL (≈ 0.0284 µM)
MIC (C. difficile; Clostridioides difficile, C. difficile NR-32892): 0.03 µg/mL (≈ 0.0284 µM)
MIC (C. difficile; Clostridioides difficile, C. difficile NR-32895): 0.03 µg/mL (≈ 0.0284 µM)
MIC (C. difficile; Clostridioides difficile, C. difficile NR-32896): 0.03 µg/mL (≈ 0.0284 µM)
MIC (C. difficile; Clostridioides difficile, C. difficile NR-32897): 0.03 µg/mL (≈ 0.0284 µM)
MIC (C. difficile; Clostridioides difficile, C. difficile NR-32900): 0.03 µg/mL (≈ 0.0284 µM)
MIC (C. difficile; Clostridioides difficile, C. difficile NR-32903): 0.03 µg/mL (≈ 0.0284 µM)
MIC (C. difficile; Clostridioides difficile, C. difficile NR-32904): 0.03 µg/mL (≈ 0.0284 µM)
MIC (C. difficile; Clostridioides difficile, C. difficile NR-49277): 0.06 µg/mL (≈ 0.0567 µM)
MIC (C. difficile; Clostridioides difficile, C. difficile NR-49278): 0.25 µg/mL (≈ 0.236 µM)
MIC (C. difficile; Clostridioides difficile, C. difficile NR-49279): 0.25 µg/mL (≈ 0.236 µM)
MIC (C. difficile; Clostridioides difficile, C. difficile NR-49281): 0.25 µg/mL (≈ 0.236 µM)
MIC (C. difficile; Clostridioides difficile, C. difficile NR-49282): 0.06 µg/mL (≈ 0.0567 µM)
MIC (C. difficile; Clostridioides difficile, C. difficile NR-49283): 0.03 µg/mL (≈ 0.0284 µM)
MIC (C. difficile; Clostridioides difficile, C. difficile NR-49284): 0.06 µg/mL (≈ 0.0567 µM)
MIC (C. difficile; Clostridioides difficile, C. difficile NR-49285): 0.06 µg/mL (≈ 0.0567 µM)
MIC (C. difficile; Clostridioides difficile, C. difficile NR-49286): 0.25 µg/mL (≈ 0.236 µM)
MIC (C. difficile; Clostridioides difficile, C. difficile NR-49287): 0.25 µg/mL (≈ 0.236 µM)
MIC (C. difficile; Clostridioides difficile, C. difficile NR-49288): 0.25 µg/mL (≈ 0.236 µM)
MIC (C. difficile; Clostridioides difficile, C. difficile NR-49289): 0.03 µg/mL (≈ 0.0284 µM)
MIC (C. difficile; Clostridioides difficile, C. difficile NR-49290): 0.06 µg/mL (≈ 0.0567 µM)
MIC (C. difficile; Clostridioides difficile, C. difficile NR-49291): 0.25 µg/mL (≈ 0.236 µM)
MIC (C. difficile; Clostridioides difficile, C. difficile NR-49293): ≤ 0.03 µg/mL
MIC (C. difficile; Clostridioides difficile, C. difficile NR-49295): ≤ 0.03 µg/mL
MIC (C. difficile; Clostridioides difficile, C. difficile NR-49296): ≤ 0.03 µg/mL
MIC (C. difficile; Clostridioides difficile, C. difficile NR-49297): 0.0125 µg/mL (≈ 0.0118 µM)
MIC (C. difficile; Clostridioides difficile, C. difficile NR-49300): 0.03 µg/mL (≈ 0.0284 µM)
MIC (C. difficile; Clostridioides difficile, C. difficile NR-49301): 0.03 µg/mL (≈ 0.0284 µM)
MIC (C. difficile; Clostridioides difficile, C. difficile NR-49303): 0.03 µg/mL (≈ 0.0284 µM)
MIC (C. difficile; Clostridioides difficile, C. difficile NR-49304): 0.06 µg/mL (≈ 0.0567 µM)
MIC (C. difficile; Clostridioides difficile, C. difficile NR-49306): 0.03 µg/mL (≈ 0.0284 µM)
MIC (C. difficile; Clostridioides difficile, C. difficile NR-49307): 0.03 µg/mL (≈ 0.0284 µM)
MIC (C. difficile; Clostridioides difficile, C. difficile NR-49309): 0.03 µg/mL (≈ 0.0284 µM)
MIC (C. difficile; Clostridioides difficile, C. difficile NR-49311): 0.03 µg/mL (≈ 0.0284 µM)
MIC (C. difficile; Clostridioides difficile, C. difficile NR-49313): 0.03 µg/mL (≈ 0.0284 µM)
MIC (C. difficile; Clostridioides difficile, C. difficile NR-49314): 0.25 µg/mL (≈ 0.236 µM)
MIC (C. difficile; Clostridioides difficile, C. difficile NR-49315): 0.06 µg/mL (≈ 0.0567 µM)
MIC (C. difficile; Clostridioides difficile, C. difficile NR-49317): 0.06 µg/mL (≈ 0.0567 µM)
MIC (C. difficile; Clostridioides difficile, C. difficile NR-49323): ≤ 0.03 µg/mL
MIC (C. difficile; Clostridioides difficile, C. difficile NR-49324): 0.06 µg/mL (≈ 0.0567 µM)
MIC (C. difficile; Clostridioides difficile, C. difficile NR-49325): 0.03 µg/mL (≈ 0.0284 µM)
MIC (C. difficile; Clostridioides difficile, C. difficile NR-49326): 0.03 µg/mL (≈ 0.0284 µM)
MIC (C. difficile; Clostridioides difficile, C. difficile NR-49327): 0.03 µg/mL (≈ 0.0284 µM)
MIC (C. difficile; Clostridioides difficile, C. difficile NR-49328): 0.03 µg/mL (≈ 0.0284 µM)
MIC (C. difficile; Clostridioides difficile, C. difficile NR-49329): 0.03 µg/mL (≈ 0.0284 µM)
MIC50 (C. difficile; Clostridioides difficile, 101 C. difficile strains): 0.06 µg/mL (≈ 0.0567 µM)
MIC90 (C. difficile; Clostridioides difficile, 101 C. difficile strains, read-out: MIC90 (101 strains)): 0.25 µg/mL (≈ 0.236 µM)
Selectivity (C. difficile; MIC MRSA NRS70/MIC C. difficile ATCC43255, Table 7): 128
MIC (Veillonella sp. HM-49; SP.HM49, Veillonella sp. HM-49, Table 1, read-out: MIC): 8 µg/mL (≈ 7.56 µM)
MIC (Veillonella sp. HM-49; Veillonella sp. strain HM-49, Table 7): 8 µg/mL (≈ 7.56 µM)
MIC (MRSA (NRS70, NRS119); MRSA NRS70, Table 1): 8 µg/mL (≈ 7.56 µM)
MIC (MRSA (NRS70, NRS119); MRSA NRS70, Table 7): 8 µg/mL (≈ 7.56 µM)
MIC (MRSA (NRS70, NRS119); MRSA NRS119, Table 1): 2 µg/mL (≈ 1.89 µM)
MIC (Bacteroides fragilis; Table 1): > 32 µg/mL
MIC (Bacteroides fragilis; Table 7): > 32 µg/mL
MIC (Eubacterium sp.; Table 1): 16 µg/mL (≈ 15.1 µM)
MIC (Eubacterium sp.; Table 7): 16 µg/mL (≈ 15.1 µM)
MIC (Bifidobacterium longum; Table 1): < 0.01 µg/mL
MIC (Bifidobacterium longum; Table 7): < 0.01 µg/mL
MIC (Corynebacterium spp.; Table 1): < 0.06 µg/mL
MIC (Corynebacterium spp.; Table 7): < 0.0625 µg/mL
MIC (S. aureus ATCC29213): 8 µg/mL (≈ 7.56 µM)
MIC (Lactobacillus reuteri; Lactobacillus reuteri strain HM-102, Table 7): >32 µg/mL
MIC (Lactobacillus reuteri; Limosilactobacillus reuteri, Lactobacillus reuter strain HM-102, Table 1, read-out: MIC): > 32 µg/mL
MIC (E. faecium NCTC7171): 2 µg/mL (≈ 1.89 µM)
MIC (Lactobacillus gasseri; Lactobacillus gasseri strain HM-644, Table 7): 2 µg/mL (≈ 1.89 µM)
MIC (Lactobacillus gasseri; Lactobacillus gasseri, Lactobacillus gasser strain HM-644, Table 1, read-out: MIC): 2 µg/mL (≈ 1.89 µM)
MIC (Fusobacterium nucleatum; Table 1): < 0.06 µg/mL
MIC (Fusobacterium nucleatum; Table 7): < 0.0625 µg/mL
